Assay results from paper PMC11222147, “Host defence peptide plectasin targets bacterial cell wall precursor lipid II by a calcium-sensitive supramolecular mechanism” (Nature Microbiology, 2024).
In brackets after ≈: the same amount, converted by molar mass. Like-named read-outs stand apart in the source and are kept apart here.

Assays:
[1] = Carboxyfluorescein leakage from LUVs
Method: Vesicle leakage assays were conducted using LUVs filled with carboxyfluorescein. Carboxyfluorescein solutions were made by suspending ~50 mM carboxyfluorescein in H2O and adjusting the pH to ~7.2 using 10 M NaOH. The resulting solution was diluted with H2O to match the osmolarity of the outside buffer, which consisted of 10 mM Tris and 100 mM NaCl, at pH = 7.2. LUVs were prepared as described above. Non-enclosed carboxyfluorescein was removed using a Sephadex G50 column equilibrated in outside buffer. Measurements were conducted on a Cary Eclipse spectrophotometer at 20 °C under constant stirring by monitoring the fluorescence intensity at 515 nm (excitation at 492 nm, 5 nm slit width, 0.1 s averaging time). A total lipid concentration of 25 µM was used for all experiments. Fluorescence traces were normalized using the fluorescence baseline at the start as 0% and fluorescence after treatment with 0.1 vol% Triton-X100 as 100%.

S. simulans 22 [2] = assay type: cell-based, Staphylococcus simulans; settings: for MIC: cation-depleted MHB + 0.5 mM MgCl2 + 10 µM ZnSO4
Method: Cation-depleted MHB was prepared as previously described[18] and supplemented with MgCl2 (0.5 mM) and ZnSO4 (10 µM). Plectasin was serially diluted twofold over a 96-well polypropylene plate. Serial dilutions of Ca^2+ in calcium-depleted medium were subsequently added to the wells containing the plectasin dilution series, followed by addition of bacterial suspensions. MICs were determined by visual inspection after 16–20 h (Staphylococcus). The effect of reduced Ca^2+ levels on S. simulans growth in the absence of plectasin was assessed by monitoring growth at 37 °C by OD600 over 18 h (Supplementary Fig. 4).

S. pyogenes M3 = assay: MIC assays under standard conditions; assay type: cell-based, Streptococcus pyogenes; settings: Supplementary Table 1; cation-adjusted MHB + 5% lysed horse blood, 5% CO2, 20–24 h
Method: Plectasin and analogues were serially diluted in cation-adjusted Mueller–Hinton broth (MHB) in round-bottom polypropylene 96-well plates (50 µl per well). Selected bacterial strains were grown from glycerol stocks on blood agar plates. Individual colonies were inoculated in TSB and incubated at 37 °C while shaking until OD600 reached 0.5. Bacterial suspensions were then diluted 100 times in cation-adjusted MHB and distributed (50 μl per well) over the microplate containing the diluted plectasin solutions. Plates were covered by a gas-permeable adhesive membrane and incubated at 37 °C while shaking. MICs were determined by visual inspection after 16–20 h (Staphylococcus) or 20–24 h (Streptococcus). For Streptococcus strains, the broth was additionally supplemented with 5% lysed horse blood, and the microplates were incubated under 5% CO2 atmosphere. In the assays, we used the following strains: S. simulans, S. pneumoniae serotype 8, S. pneumoniae ATCC6305 and Streptococcus pyogenes M3.

[3] = ITC of bivalent cation binding to plectasin in solution; settings: mean of duplicate, read-out: Kd, Mg^2+ binding to plectasin (ITC)
mammalian cells = settings: cited from earlier work
S. pneumoniae ATCC6305 = assay: MIC assays under standard conditions; assay type: cell-based, Streptococcus pneumoniae; settings: Supplementary Table 1; cation-adjusted MHB + 5% lysed horse blood, 5% CO2, 20–24 h
Outline: (§1)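 Broth microdilution in cation-adjusted MHB, inoculum from OD600 0.5 TSB culture diluted 100-fold, 37 °C with shaking. Streptococci: 5% lysed horse blood, 5% CO2, MIC read visually at 20–24 h; S. simulans read at 16–20 h.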

S. pneumoniae serotype 8 = assay: MIC assays under standard conditions; assay type: cell-based, Streptococcus pneumoniae; settings: Supplementary Table 1; cation-adjusted MHB + 5% lysed horse blood, 5% CO2, 20–24 h
Outline: as §1

[4] = Confocal microscopy of GUVs doped with Und-NBD-lipid II; settings: GUVs 0.4 mol% Und-NBD-LII in DOPC, 1 μM antibiotic
Method: GUVs were prepared by electroformation using in-house build Teflon cells with two titanium wires as electrodes. About 1 μl of 0.5 mM DOPC with 0.4 mol% NBD–lipid II in 2:1 CHCl3/MeOH was brushed on both electrodes and thoroughly dried under vacuum. Next, the cell was filled with 350 μl 300 mM sucrose, and GUVs were formed by applying an oscillating voltage (sine wave, 2 V, 10 Hz) for 90 min and released from the electrodes (square wave, 2 V, 2 Hz). Microscopy slides were precoated using a 1 mg ml^−1 BSA solution. Slides were filled with 300 μl 300 mM glucose solution, followed by addition of the antibiotic and finally 30–50 μl GUV solution. The GUVs were imaged using a Zeiss LSM 880 confocal microscope with a ×63/1.2NA glycerol objective lens. Green fluorescence (530–545 nm) was detected after excitation with a 488 nm laser.

[5] = Tryptophan fluorescence spectroscopy, lipid II binding affinity
Method: Plectasin’s single tryptophan can be used to monitor insertion into the membrane. Measurements were done on a Cary Eclipse (FL0904M005) fluorimeter at 20 °C under constant stirring in a 4 × 10 mm quartz cuvette. For titration experiments, the cuvette was oriented perpendicular to the excitation beam to minimize scattering. LUVs with or without 2 mol% lipid II (prepared as described above at 1–5 mM total lipid concentration) were titrated to 100 nM plectasin in 50 mM HEPES, 150 mM NaCl at pH = 7.2. Fluorescence was excited at 280 nm (5 nm slit) and recorded between 300 and 400 nm (10 nm slit) at 1 nm intervals with 1 s averaging per point. Spectra were corrected for a blank using buffer and for scattering using a titration series in the absence of plectasin. Corrected spectra were fit with log-normal distributions, and the shift of the resulting wavelength of maximum fluorescence (Δλmax) as a function of lipid II concentration on the outside of the vesicles was fit using a quadratic binding equation[54] to obtain the binding affinities.

[6] = ITC of bivalent cation binding to plectasin in solution; settings: mean of duplicate, read-out: Kd, Ca^2+ binding to plectasin (ITC)
[7] = HS-AFM oligomerization on supported lipid bilayers doped with lipid II; settings: DOPC/DOPG (1:1), 1% lipid II, 1 mM Ca^2+
Method: HS-AFM imaging was performed on a supported lipid bilayer deposited on mica using an amplitude modulation tapping mode HS-AFM from RIBM (Ando type)[11]. The lipid compositions are as stated in the experimental conditions of the corresponding results. Short cantilevers (∼7 μm) with a nominal spring constant of 0.15 N m^−1 were used (USC-F1.2-k0.15, NanoWorld) for all experiments. A minimal imaging force was applied by using a small set-point amplitude, typically 80% of the free amplitude (for 1–2 nm of free amplitude). […] Imaging was started on the lipid bilayer surface in recording buffer. […] All reported experiments were repeated for at least three times for each condition. Image analysis was done using Igor Pro version 6.22 (Wavemetrics) with RIBM script and ImageJ version 1.501 with minimal image corrections (tilt, drift and background corrections). The time stamps on HS-AFM videos are relative to plectasin addition into the liquid chamber. Image acquisition rate varied from 0.5 frames per second to 2 frames per second (see the figure/video legends).

S. simulans 22 [8] = assay: MIC assays under standard conditions; assay type: cell-based, Staphylococcus simulans
Outline: as §1

CC[C@H](C)[C@@H]1NC(=O)[C@H](CO)NC(=O)[C@H](CCCCN)NC(=O)[C@@H]2CSSC[C@@H](C(=O)N[C@@H](Cc3ccc(O)cc3)C(=O)O)NC(=O)[C@H](CCCCN)NC(=O)[C@@H]3CSSC[C@H](NC(=O)[C@H](CCC(N)=O)NC(=O)[C@H](CCSC)NC(=O)[C@H](CC(=O)O)NC(=O)[C@H](CC(=O)O)NC(=O)[C@H](CCC(=O)O)NC(=O)[C@H](CC(=O)O)NC(=O)[C@H](Cc4c[nH]c5ccccc45)NC(=O)[C@@H]4CCCN4C(=O)CNC(=O)[C@H](CC(N)=O)NC(=O)[C@@H](NC(=O)CNC(=O)[C@H](Cc4ccccc4)NC(=O)CN)CSSC[C@H](NC(=O)[C@H](Cc4ccc(O)cc4)NC(=O)CNC(=O)CNC(=O)[C@H](CCCCN)NC(=O)[C@H](Cc4ccc(O)cc4)NC(=O)CNC(=O)[C@H](CCCCN)NC1=O)C(=O)N[C@@H](C)C(=O)N[C@@H](CCCCN)C(=O)NCC(=O)NCC(=O)N[C@@H](Cc1ccccc1)C(=O)N[C@@H](C(C)C)C(=O)N3)C(=O)N[C@@H](Cc1c[nH]cn1)C(=O)N[C@@H](CC(N)=O)C(=O)N[C@@H](Cc1c[nH]cn1)C(=O)N2 [Plectasin wt]
carboxyfluorescein leakage (in words) ([1]; DOPC Lipid II vesicles, in the presence of calcium): efficiently permeabilized
carboxyfluorescein leakage (in words) ([1]; phospholipids native to gram-positive bacteria included in the membrane, with calcium): virtually no leakage
improvement of antimicrobial activity with increasing Ca^2+ concentration (S. simulans 22 [2]; Ca^2+ variable assay): 4-8 fold
MIC (S. simulans 22 [2]; Calcium 0 mM): 12.5 mg/L
MIC (S. simulans 22 [2]; Calcium 0.31 mM): 1.56 mg/L
MIC (S. simulans 22 [2]; Calcium 0.5 mM): 1.56 mg/L
MIC (S. simulans 22 [2]; Calcium 0.63 mM): 1.56 mg/L
MIC (S. simulans 22 [2]; Calcium 1.25 mM): 1.56 to 3.13 mg/L
MIC (S. simulans 22 [2]; Calcium 2.5 mM): 3.13 mg/L
Minimum inhibitory concentration, S. pyogenes M3 (S. pyogenes M3): ≤ 0,012 μg/mL
Kd [3]: 0.195 ± 0.035 µM
toxicity against mammalian cells (mammalian cells): lack of plectasin toxicity against mammalian cells
Minimum inhibitory concentration, S. pneumoniae ATCC6305 (S. pneumoniae ATCC6305): ≤ 0.78 mg/L
Minimum inhibitory concentration, S. pneumoniae serotype 8 (S. pneumoniae serotype 8): 1,56 μg/mL
lipid II cluster/domain formation on GUVs [4]: cluster formation
Kd ([5]; DOPC liposomes, 1 mM Mg^2+): 0.08 µM
Kd ([5]; DOPC liposomes, without bivalent ions (100 μM EDTA)): 0.155 µM
Kd ([5]; anionic DOPC/DOPG (1:1) liposomes, 1 mM Ca^2+): 0.001 µM
Kd ([5]; anionic DOPC/DOPG (1:1) liposomes, 1 mM Mg^2+): 0.004 µM
Kd ([5]; anionic DOPC/DOPG (1:1) liposomes, without bivalent ions (100 μM EDTA)): 0.027 µM
lipid II binding affinity increase in the presence of Ca^2+ ([5]; neutral DOPC liposomes, with Ca^2+ vs without bivalent ions): > 100 fold
Kd ([5]; zwitterionic DOPC liposomes, 2 mol% lipid II, 1 mM Ca^2+, 100 nM plectasin, HEPES pH 7.2, 20 °C): 0.001 µM
Kd [6]: 0.159 ± 0.069 µM
plectasin concentration giving full coverage (AFM) [7]: 400 nM
plectasin concentration giving partial coverage (AFM) [7]: 300 nM
plectasin concentration above which supra-structures emerge (AFM) ([7]; 10 min after addition): > 200 nM
Minimum inhibitory concentration, S. simulans (S. simulans 22 [8]; Supplementary Table 1, cation-adjusted MHB, 37 °C, 16–20 h): 0,78 μg/mL
MIC expressed as plectasin concentration (S. simulans 22 [8]; corresponding to 0.78 µg ml^−1): 0.177 µM (≈ 0.779 µg/mL)
